For twelve compounds, activity change, negative = cytotoxicity results are on record in PubChem BioAssay AID1259333 (Broad Institute, 2017).

Calls of active or inactive are those of the source. The rule behind the calls is not given here; tested in parental BL2 cells.

The first test can be described thus: loss of cell viability by ATP content – CellTiter-Glo, cytotoxicity control, dose response (AID 1259333).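 Note: 0% = vehicle neutral controls and -100% = reference inhibitor positive controls.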 Particulars: cytotoxicity, CellTiter-Glo ATP luminescence; at 3.5 µM (top of the series). In general terms: ATP-based viability assays read luminescence as a measure of living cells.
With `O=C(Nc1ccc(C(F)(F)F)cc1)Nc1ccc2c(c1)[C@H]1C[C@@H](CC(=O)N3CCc4ccccc4C3)O[C@@H](CO)[C@H]1O2`, the activity change, negative = cytotoxicity was 30.5% (inactive).

Staying with this test, now noted: cytotoxicity, CellTiter-Glo ATP luminescence; at 10 µM (top of the series).
As for `Oc1ccc2c(c1)OCC1(O)Cc3cc(O)c(O)cc3C21` (configuration not stated), the activity change, negative = cytotoxicity was 8.98% (inactive). `Cc1ccccc1S(=O)(=O)N1C[C@@H]2N[C@H](C1)C2c1ccc(-c2cccc(C#N)c2)cc1` (some centres not stated): the activity change, negative = cytotoxicity is 54.5% (inactive). On the same count and under the same terms, the value for `Cc1ccc(P(=O)(CSC(=N)N)c2ccc(C)cc2)cc1` was -36.8% (inactive); that for `Cc1nc(C)c(C(=O)Nc2ncc([N+](=O)[O-])s2)o1` was 29.6% (inactive); that for `COc1ccc2cc(-c3cc(C(=O)O)c4ccccc4n3)ccc2c1` was 6.64% (inactive). Consider `O=C(NCc1ccccn1)C1CCCN(S(=O)(=O)c2ccccc2)C1` (configuration not stated), for which the activity change, negative = cytotoxicity was 44.9% (inactive). Same read-out and setting: to `c1ccc(-c2nnc(-c3ccccn3)nn2)nc1` belongs 22.8% (inactive); to `CC1CNCCN1S(=O)(=O)c1cccc2cnccc12` (configuration not stated), -37.9% (inactive); to `Cc1ccc(N2CC(C(=O)Nc3nccs3)CC2=O)cc1Cl` (configuration not stated), 22.3% (inactive).

In the case of `COc1cccc(/C=N/Nc2ccc(C(=O)O)cc2)c1O`, the activity change, negative = cytotoxicity is 5.24% (inactive).

`Cc1nc(-c2ccc(OCC(C)C)c(C#N)c2)sc1C(=O)O`: the activity change, negative = cytotoxicity was 23.3% (inactive).
